The target of assay [1] is T1, Baculoviral IAP repeat-containing protein 2 [269-336] (Homo sapiens, UniProt Q13490).
T1 construct: 269-336
Briefly: Fluorescence Polarization Affinity Measurements. Particulars: pH 7.2; 22 °C. The procedure:
(§1) Samples for fluorescence polarization affinity measurements were prepared by addition of serial dilutions of […] to each well containing antagonist and polarization probe in the buffer. Samples were read after 30-min incubation. Fluorescence polarization values were plotted as a function of the antagonist concentration, and the IC50 values were obtained by fitting the data to a four-parameter equation using KaleidaGraph software. Ki values for the antagonists were determined from the IC50 values.
A general note: In fluorescence polarisation assays a small probe gives low polarisation when free and higher when bound to something large.

For assay [2], the target named is T2, Baculoviral IAP repeat-containing protein 3 [255-322] (Homo sapiens, UniProt Q13489).
T2 construct: 255-322
Description: Fluorescence Polarization Affinity Measurements. The note with it: pH 7.2; 22 °C. The protocol: as §1

Assay [3] can be described thus: Samples for fluorescence polarization affinity measurements were prepared by addition of serial dilutions of […] to each well containing antagonist and polarization probe in the buffer. Samples were read after 30-min incubation. Fluorescence polarization values were plotted as a function of the antagonist concentra. The note with it: pH 7.2.

Molecules are shown by their SMILES.

T1 sequence (Q13490 269-336): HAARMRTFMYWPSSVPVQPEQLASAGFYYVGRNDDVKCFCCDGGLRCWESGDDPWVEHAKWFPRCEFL
T2 sequence (Q13489 255-322): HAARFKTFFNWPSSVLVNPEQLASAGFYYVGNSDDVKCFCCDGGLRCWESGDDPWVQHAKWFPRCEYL

For orientation: Ki means a dissociation constant, usually derived from enzyme kinetics or from competition with a known ligand. With `CN[C@@H](C)C(=O)N[C@H](C(=O)N1CC[C@H](C)[C@H]1C(=O)Nc1cc(C)nn1-c1ccccc1)C1CCCCC1` [CS-1], the figures for the Ki in assay [1], in assay [2] and in assay [3] were 10 nM, 52 nM and 2400 nM, respectively.
On to `CN[C@@H](C)C(=O)N[C@H](C(=O)N1CCC[C@H]1C(=O)Nc1ccccc1-c1ncccn1)C1CCCCC1` [CS-2], for which the Ki turned out to be 37 nM in assay [1], 114 nM in assay [2] and 5050 nM in assay [3].
For `CN[C@@H](C)C(=O)N[C@H](C(=O)N1CCC[C@H]1c1nc2c(-c3ccccc3Cl)nccc2s1)C1CCOCC1` [PS-1], the Ki in assay [1] worked out at 36 nM; in assay [2], 96 nM; in assay [3], 33 nM.
As for `CN[C@H](C)C(=O)N[C@@H](C(=O)N1CCC[C@@H]1c1nc2c(-c3ccccc3Cl)nccc2s1)C1CCOCC1` [ent-PS-1], the Ki in assay [1], in assay [2] and in assay [3] was more than 34000 nM in each case.

These data come from BindingDB's records for doi:10.1021/cb900083m (Genentech, 2009).
